Results reported in ChEMBL document CHEMBL1777779, “Discovery of novel quaternary ammonium derivatives of (3R)-quinuclidinyl carbamates as potent and long acting muscarinic antagonists” (Bioorg Med Chem Lett, 2011).

How the values were obtained:
[1] = molecular target: Muscarinic acetylcholine receptor M1 and M3 (Homo sapiens) (UniProt P20309+P11229); test: Selectivity ratio of IC50 for human muscarinic M1 receptor to IC50 for human muscarinic M3 receptor
[2] = molecular target: T1, Muscarinic acetylcholine receptor M2 (Homo sapiens, UniProt P08172); test: Displacement of [3H]NMS from human muscarinic M2 receptor expressed in CHO-K1 cells after 1 hr by scintillation counting; assay type: cell-based
T1 sequence (P08172 whole entry): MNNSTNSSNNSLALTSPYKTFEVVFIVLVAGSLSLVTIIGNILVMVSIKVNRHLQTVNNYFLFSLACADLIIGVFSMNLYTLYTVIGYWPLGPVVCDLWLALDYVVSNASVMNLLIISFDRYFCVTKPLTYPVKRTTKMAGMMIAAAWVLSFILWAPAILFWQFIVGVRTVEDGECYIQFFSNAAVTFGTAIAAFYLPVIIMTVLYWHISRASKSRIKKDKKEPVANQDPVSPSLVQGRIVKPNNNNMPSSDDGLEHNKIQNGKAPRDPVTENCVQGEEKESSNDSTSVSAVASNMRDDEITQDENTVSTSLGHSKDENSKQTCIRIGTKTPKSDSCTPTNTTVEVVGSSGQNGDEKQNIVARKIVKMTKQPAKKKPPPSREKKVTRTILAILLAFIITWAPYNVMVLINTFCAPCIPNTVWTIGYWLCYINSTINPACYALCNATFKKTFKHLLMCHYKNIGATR

[3] = molecular target: T2, Muscarinic acetylcholine receptor M1 (Homo sapiens, UniProt P11229); test: Displacement of [3H]NMS from human muscarinic M1 receptor expressed in CHO-K1 cells after 1 hr by scintillation counting; assay type: cell-based
T2 sequence (P11229 whole entry): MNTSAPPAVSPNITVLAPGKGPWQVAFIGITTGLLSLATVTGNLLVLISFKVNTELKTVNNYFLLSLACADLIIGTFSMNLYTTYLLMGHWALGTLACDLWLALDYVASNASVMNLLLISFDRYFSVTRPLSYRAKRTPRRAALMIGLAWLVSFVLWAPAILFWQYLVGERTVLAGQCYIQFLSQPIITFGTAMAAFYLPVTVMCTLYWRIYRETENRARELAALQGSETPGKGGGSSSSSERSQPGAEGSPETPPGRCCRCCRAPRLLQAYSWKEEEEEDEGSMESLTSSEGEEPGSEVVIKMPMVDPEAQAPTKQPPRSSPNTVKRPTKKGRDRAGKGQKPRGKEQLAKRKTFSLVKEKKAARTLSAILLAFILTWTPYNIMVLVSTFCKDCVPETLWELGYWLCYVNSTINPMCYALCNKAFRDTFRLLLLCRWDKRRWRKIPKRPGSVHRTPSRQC

[4] = molecular target: Muscarinic acetylcholine receptor M3 (Homo sapiens, UniProt P20309); test: Displacement of [3H]NMS from human muscarinic M3 receptor expressed in CHO-K1 cells after 1 hr by scintillation counting; assay type: cell-based
Muscarinic acetylcholine receptor M3, sequence (P20309 whole entry): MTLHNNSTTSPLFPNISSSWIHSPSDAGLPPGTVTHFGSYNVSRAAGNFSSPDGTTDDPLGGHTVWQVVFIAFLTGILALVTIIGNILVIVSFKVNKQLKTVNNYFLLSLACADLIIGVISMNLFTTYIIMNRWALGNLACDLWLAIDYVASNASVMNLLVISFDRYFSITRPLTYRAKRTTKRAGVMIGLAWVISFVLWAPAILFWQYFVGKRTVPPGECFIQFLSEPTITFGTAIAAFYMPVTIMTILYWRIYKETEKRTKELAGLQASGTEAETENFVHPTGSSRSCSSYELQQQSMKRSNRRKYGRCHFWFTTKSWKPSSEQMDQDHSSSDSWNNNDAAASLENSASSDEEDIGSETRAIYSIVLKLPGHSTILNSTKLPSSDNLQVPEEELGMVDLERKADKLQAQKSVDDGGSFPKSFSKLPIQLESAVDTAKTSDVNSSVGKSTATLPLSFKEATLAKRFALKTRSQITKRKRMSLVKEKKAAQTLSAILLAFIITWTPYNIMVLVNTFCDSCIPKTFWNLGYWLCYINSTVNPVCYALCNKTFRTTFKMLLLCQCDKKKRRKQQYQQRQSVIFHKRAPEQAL

[5] = molecular target: Muscarinic acetylcholine receptors; M2 & M3 (Homo sapiens) (UniProt P20309+P08172); test: Selectivity ratio of IC50 for human muscarinic M2 receptor to IC50 for human muscarinic M3 receptor
Muscarinic acetylcholine receptors; M2 & M3 (Homo sapiens), sequence (P20309 whole entry, looked up, one chain of several): as the sequence (P20309 whole entry) above

Cavia porcellus [6] = test: Inhibition of acetylcholine-induced bronchospasm in anesthetized Dunkin-Hartley guinea pig assessed as time required to recover 50% of maximum inhibitory effect at 1 mg/ml administered via nebulizer; assay type: functional
Cavia porcellus [7] = test: Inhibition of acetylcholine-induced bronchospasm in anesthetized Dunkin-Hartley guinea pig assessed as time required to recover 50% of maximum inhibitory effect at 3 mg/ml administered via nebulizer; assay type: functional

Muscarinic acetylcholine receptor M1 and M3 (Homo sapiens), sequence (P20309 whole entry, looked up, one chain of several): as the sequence (P20309 whole entry) above

| Compound | Ratio IC50 [1] | IC50 [2] | IC50 [3] | IC50 [4] | Ratio IC50 [5] | Time (Cavia porcellus [6]) | Time (Cavia porcellus [7]) |
| --- | --- | --- | --- | --- | --- | --- | --- |
| CCCCN(C(=O)O[C@H]1CN2CCC1CC2)c1ccccc1 | 0.2 | 22.9 nM | 1.1 nM | 4.3 nM | 5.3 | <1 h | – |
| O=C(O[C@H]1C[N+]2(CCOc3ccccc3)CCC1CC2)N(Cc1cccs1)c1ccccc1.[Br-] | 1.3 | 1.1 nM | 0.4 nM | 0.3 nM | 3.7 | >6 h | – |
| Cc1ccc(N(Cc2ccccc2)C(=O)O[C@H]2CN3CCC2CC3)cc1 | 0.5 | 196 nM | 39.7 nM | 74.7 nM | 2.6 | – | – |
| O=C(O[C@H]1C[N+]2(CCCc3ccccc3)CCC1CC2)N(Cc1ccccc1)c1ccccc1.[Br-] | 5 | 4 nM | 1.5 nM | 0.3 nM | 13.3 | >6 h | – |
| O=C(O[C@H]1CN2CCC1CC2)N(Cc1ccccc1)Cc1cccs1 | 0.4 | 88.9 nM | 8.8 nM | 22.5 nM | 3.95 | – | – |
| CCCCN(C(=O)O[C@H]1C[N+]2(CCc3ccccc3)CCC1CC2)c1ccccc1 | 1.7 | 121 nM | 33.3 nM | 19 nM | 6.3 | – | – |
| O=C(O[C@H]1CN2CCC1CC2)N(Cc1cccc(F)c1)c1cccc(F)c1 | 0.6 | 26.8 nM | 1.5 nM | 2.4 nM | 11.2 | – | – |
| O=C(O[C@H]1CN2CCC1CC2)N(CCc1ccccc1)c1ccccc1 | 0.3 | 42.1 nM | 1 nM | 3.6 nM | 11.7 | – | – |
| CCCCN(Cc1cccs1)C(=O)O[C@H]1CN2CCC1CC2 | 0.04 | 76.2 nM | 0.8 nM | 17.7 nM | 4.3 | – | – |
| O=C(O[C@H]1CN2CCC1CC2)N1CCc2ccccc2[C@@H]1c1ccccc1 [SOLIFENACIN SUCCINATE] | 0.5 | 574 nM | 63.5 nM | 131 nM | 4.4 | – | – |
| O=C(O[C@H]1C[N+]2(CCOc3ccccc3)CCC1CC2)N(Cc1cc(F)c(F)c(F)c1)c1cccc(F)c1.[Br-] | 1.8 | 14.4 nM | 1.1 nM | 0.6 nM | 24 | >6 h | – |
| O=C(O[C@H]1C[N+]2(CCOc3ccccc3)CCC1CC2)N(Cc1ccccc1)c1ccccc1.[Br-] | 1.7 | 3.9 nM | 1.7 nM | 1 nM | 3.9 | >6 h | – |
| CCCCN(C(=O)O[C@H]1C[N+]2(CCCc3ccccc3)CCC1CC2)c1ccccc1 | 3.1 | 17.7 nM | 2.5 nM | 0.8 nM | 22.1 | – | – |
| O=C(O[C@H]1CN2CCC1CC2)N(Cc1cccs1)Cc1cccs1 | 0.4 | 22.7 nM | 2.4 nM | 5.9 nM | 3.8 | – | – |
| Cc1cccc(N(Cc2cc(F)c(F)cc2F)C(=O)O[C@H]2C[N+]3(CCOc4ccccc4)CCC2CC3)c1.[Br-] | 2 | 28 nM | 2.4 nM | 1.2 nM | 23.3 | <6 h | – |
| CCCN(C(=O)O[C@H]1CN2CCC1CC2)c1ccccc1 | 0.4 | 349 nM | 26.7 nM | 71.1 nM | 4.9 | – | – |
| CC(C)N(C(=O)O[C@H]1CN2CCC1CC2)c1ccccc1 | 0.6 | 1360 nM | 428 nM | 659 nM | 2.1 | – | – |
| O=C(O[C@H]1C[N+]2(CCCc3cccs3)CCC1CC2)N(Cc1ccccc1)c1ccccc1.[Br-] | 2.3 | 7.6 nM | 1.4 nM | 0.6 nM | 12.7 | >6 h | – |

| Compound | Ratio IC50 [1] | IC50 [2] | IC50 [3] | IC50 [4] | Ratio IC50 [5] | Time (Cavia porcellus [6]) | Time (Cavia porcellus [7]) |
| --- | --- | --- | --- | --- | --- | --- | --- |
| O=C(O[C@H]1C[N+]2(CCCc3cccs3)CCC1CC2)N(Cc1cccs1)c1ccccc1.[Br-] | 3.2 | 3.2 nM | 1.6 nM | 0.5 nM | 6.4 | >6 h | – |
| CCCCN(C(=O)O[C@H]1C[N+]2(CCOc3ccccc3)CCC1CC2)c1ccccc1.[Br-] | 1.7 | 8.9 nM | 1.4 nM | 0.8 nM | 11.1 | >6 h | – |
| C[N+]12CCC(CC1)[C@@H](OC(=O)N(Cc1cccs1)c1ccccc1)C2 | 0.5 | 33.1 nM | 9.2 nM | 18.6 nM | 1.8 | – | – |
| O=C(O[C@H]1CN2CCC1CC2)N(Cc1cc(F)c(F)c(F)c1)c1cccc(F)c1 [TARAFENACIN] | 0.6 | 97.3 nM | 0.9 nM | 1.5 nM | 64.9 | – | – |
| CCCCN(C(=O)O[C@H]1C[N+]2(CCCc3cccs3)CCC1CC2)c1ccccc1.[Br-] | 3.3 | 10.9 nM | 2 nM | 0.6 nM | 18.2 | >6 h | – |
| Cc1cccc(N(Cc2cc(F)c(F)cc2F)C(=O)O[C@H]2CN3CCC2CC3)c1 | 0.7 | 45.8 nM | 1 nM | 1.4 nM | 32.7 | – | – |
| O=C(O[C@H]1C[N+]2(CCOc3ccccc3)CCC1CC2)N(Cc1ccsc1)c1ccccc1.[Br-] | 2 | 1.6 nM | 0.4 nM | 0.2 nM | 8 | >6 h | – |
| CCCCCN(C(=O)O[C@H]1CN2CCC1CC2)c1ccccc1 | 0.5 | 13.6 nM | 0.8 nM | 1.7 nM | 8 | – | – |
| O=C(O[C@H]1C[N+]2(CCCc3cccs3)CCC1CC2)N(Cc1ccsc1)c1ccccc1.[Br-] | 3.3 | 8.4 nM | 2 nM | 0.6 nM | 14 | >6 h | – |
| O=C(O[C@H]1C[N+]2(CCc3ccccc3)CCC1CC2)N(Cc1ccccc1)c1ccccc1.[Br-] | 0.85 | 50.9 nM | 15.1 nM | 17.7 nM | 2.9 | <2 h | – |
| Cc1cccc(N(Cc2cc(F)c(F)cc2F)C(=O)O[C@H]2C[N+]3(CCCc4ccccc4)CCC2CC3)c1.[Br-] | 3.3 | 29.8 nM | 3 nM | 0.9 nM | 33.1 | <6 h | – |
| O=C(Nc1ccccc1-c1ccccc1)OC12CCN(CC1)CC2 | 0.5 | 14.5 nM | 3 nM | 6 nM | 2.4 | – | – |
| O=C(O[C@H]1CN2CCC1CC2)N(Cc1ccccc1)c1ccc(F)cc1 | 0.5 | 116 nM | 8.3 nM | 15 nM | 7.7 | – | – |
| O=C(O[C@H]1CN2CCC1CC2)N(c1ccccc1)c1ccccc1 | 0.4 | 2780 nM | 319 nM | 797 nM | 3.5 | – | – |
| O=C(O[C@H]1CN2CCC1CC2)N(Cc1ccccc1)c1ccccc1 | 0.3 | 3.7 nM | 0.4 nM | 1.2 nM | 3.1 | – | 1.5 h |
| O=C(O[C@H]1CN2CCC1CC2)N(Cc1ccsc1)c1ccccc1 | 0.4 | 4.7 nM | 0.4 nM | 1 nM | 4.7 | <4 h | – |
| O=C(O[C@H]1CN2CCC1CC2)N(Cc1cccs1)c1ccccc1 | 0.7 | 1.8 nM | 0.4 nM | 0.6 nM | 3 | <4 h | – |
